From ChEMBL document CHEMBL4385620, “Inhibition of polypeptide N-acetyl-α-galactosaminyltransferases is an underlying mechanism of dietary polyphenols preventing colorectal tumorigenesis” (Bioorg Med Chem, 2019)
The source made the active and inactive calls. No cut-off for these calls is given here.

Key:
HT-29 [1] = test: Effect on ppGalNAcT6 expression level in human HT-29 cells at 40 uM incubated for 48 hrs by Q-PCR analysis; assay type: ADME, cell-based; settings: ht-29, 48 h
HT-29 [2] = test: Reduction in PDPN protein expression in human HT-29 cells at 40 uM for 48 hrs by Western blot analysis; assay type: functional, cell-based
[3] = molecular target: T1, Polypeptide N-acetylgalactosaminyltransferase 2 (Homo sapiens, UniProt Q10471); test: Inhibition of catalytic activity of human recombinant FLAG-tagged ppGalNAcT2 using Muc2 peptide as substrate incubated for 30 mins by HPLC-based enzyme assay
T1 sequence (Q10471 whole entry): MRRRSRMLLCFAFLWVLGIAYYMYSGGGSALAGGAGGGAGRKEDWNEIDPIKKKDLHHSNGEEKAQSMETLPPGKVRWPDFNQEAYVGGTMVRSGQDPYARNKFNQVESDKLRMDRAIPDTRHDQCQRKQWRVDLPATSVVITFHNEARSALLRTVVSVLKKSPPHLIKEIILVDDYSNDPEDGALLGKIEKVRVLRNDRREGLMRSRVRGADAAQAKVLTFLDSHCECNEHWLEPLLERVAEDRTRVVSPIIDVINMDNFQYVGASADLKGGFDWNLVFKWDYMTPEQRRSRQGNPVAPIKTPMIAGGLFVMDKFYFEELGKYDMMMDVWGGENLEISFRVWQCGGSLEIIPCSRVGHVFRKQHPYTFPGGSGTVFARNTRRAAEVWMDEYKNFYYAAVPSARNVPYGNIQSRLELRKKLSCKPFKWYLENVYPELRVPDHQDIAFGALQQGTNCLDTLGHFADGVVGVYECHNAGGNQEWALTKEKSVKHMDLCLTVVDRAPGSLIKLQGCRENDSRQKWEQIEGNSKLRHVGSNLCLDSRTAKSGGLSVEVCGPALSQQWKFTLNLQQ

[4] = molecular target: T1, Polypeptide N-acetylgalactosaminyltransferase 2; test: Inhibition of catalytic activity of human recombinant FLAG-tagged ppGalNAcT2 expressed in HEK293T cells and using 5-FAM labelled-EA2 peptide as substrate incubated for 30 mins by HPLC-based enzyme assay
[5] = molecular target: T1, Polypeptide N-acetylgalactosaminyltransferase 2; test: Inhibition of ppGalNAcT2 in human HT-29 cells assessed as reduction in O-GalNAc glycans by measuring PNA lectin expression at 20 to 60 uM incubated for 48 hrs by Western blot analysis; assay type: cell-based
HT-29 [6] = test: Effect on ppGalNAcT16 expression level in human HT-29 cells at 40 uM incubated for 48 hrs by Q-PCR analysis; assay type: ADME, cell-based; settings: ht-29, 48 h
HT-29 [7] = test: Effect on ppGalNAcT12 expression level in human HT-29 cells at 40 uM incubated for 48 hrs by Q-PCR analysis; assay type: ADME, cell-based; settings: ht-29, 48 h
HT-29 [8] = test: Effect on ppGalNAcT10 expression level in human HT-29 cells at 40 uM incubated for 48 hrs by Q-PCR analysis; assay type: ADME, cell-based; settings: ht-29, 48 h
[9] = molecular target: T1, Polypeptide N-acetylgalactosaminyltransferase 2; test: Competitive inhibition of human recombinant FLAG-tagged ppGalNAcT2 expressed in HEK293 cells using EA2 peptide as substrate by HPLC-based enzyme assay
[10] = molecular target: T2, Polypeptide N-acetylgalactosaminyltransferase 10 (Homo sapiens, UniProt Q86SR1); test: Inhibition of catalytic activity of ppGalNAcT10 (unknown origin) using EA2 peptide as substrate incubated for 30 mins by HPLC-based enzyme assay
T2 sequence (Q86SR1 whole entry): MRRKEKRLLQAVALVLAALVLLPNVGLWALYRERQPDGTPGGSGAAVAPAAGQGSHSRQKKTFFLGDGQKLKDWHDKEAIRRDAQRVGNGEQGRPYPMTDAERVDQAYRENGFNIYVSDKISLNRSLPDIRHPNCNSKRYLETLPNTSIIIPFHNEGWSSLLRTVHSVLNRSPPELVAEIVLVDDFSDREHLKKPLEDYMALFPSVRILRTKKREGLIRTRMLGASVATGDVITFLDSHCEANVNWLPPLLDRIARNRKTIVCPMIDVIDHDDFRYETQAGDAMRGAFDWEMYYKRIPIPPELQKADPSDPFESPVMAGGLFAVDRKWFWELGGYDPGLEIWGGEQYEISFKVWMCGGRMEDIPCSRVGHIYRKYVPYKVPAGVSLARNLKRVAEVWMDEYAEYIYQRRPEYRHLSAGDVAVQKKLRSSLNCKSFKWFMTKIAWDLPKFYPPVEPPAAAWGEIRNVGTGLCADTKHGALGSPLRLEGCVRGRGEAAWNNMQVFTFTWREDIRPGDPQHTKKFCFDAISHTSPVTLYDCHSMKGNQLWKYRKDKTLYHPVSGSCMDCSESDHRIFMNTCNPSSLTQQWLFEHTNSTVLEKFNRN

Homo sapiens = species: Homo sapiens; test: Ratio of IC50 for IC50 for human recombinant FLAG-tagged ppGalNAcT2 W282A mutant to IC50 for human recombinant FLAG-tagged ppGalNAcT2
RKO [11] = test: Cytotoxicity against human RKO cells at 40 uM incubated for 48 hrs by CCK-8 assay; assay type: cell-based
[12] = molecular target: T1, Polypeptide N-acetylgalactosaminyltransferase 2; test: Inhibition of ppGalNAcT2 in human RKO cells assessed as reduction in O-GalNAc glycosylation by measuring VVA lectin expression at 40 uM incubated for 48 hrs by Western blot analysis; assay type: cell-based
HT-29 [13] = test: Effect on ppGalNAcT1 expression level in human HT-29 cells at 40 uM incubated for 48 hrs by Q-PCR analysis; assay type: ADME, cell-based; settings: ht-29, 48 h
[14] = molecular target: T3, Polypeptide N-acetylgalactosaminyltransferase 3 (Homo sapiens, UniProt Q14435); test: Inhibition of catalytic activity of ppGalNAcT3 (unknown origin) using EA2 peptide as substrate incubated for 30 mins by HPLC-based enzyme assay
T3 sequence (Q14435 whole entry): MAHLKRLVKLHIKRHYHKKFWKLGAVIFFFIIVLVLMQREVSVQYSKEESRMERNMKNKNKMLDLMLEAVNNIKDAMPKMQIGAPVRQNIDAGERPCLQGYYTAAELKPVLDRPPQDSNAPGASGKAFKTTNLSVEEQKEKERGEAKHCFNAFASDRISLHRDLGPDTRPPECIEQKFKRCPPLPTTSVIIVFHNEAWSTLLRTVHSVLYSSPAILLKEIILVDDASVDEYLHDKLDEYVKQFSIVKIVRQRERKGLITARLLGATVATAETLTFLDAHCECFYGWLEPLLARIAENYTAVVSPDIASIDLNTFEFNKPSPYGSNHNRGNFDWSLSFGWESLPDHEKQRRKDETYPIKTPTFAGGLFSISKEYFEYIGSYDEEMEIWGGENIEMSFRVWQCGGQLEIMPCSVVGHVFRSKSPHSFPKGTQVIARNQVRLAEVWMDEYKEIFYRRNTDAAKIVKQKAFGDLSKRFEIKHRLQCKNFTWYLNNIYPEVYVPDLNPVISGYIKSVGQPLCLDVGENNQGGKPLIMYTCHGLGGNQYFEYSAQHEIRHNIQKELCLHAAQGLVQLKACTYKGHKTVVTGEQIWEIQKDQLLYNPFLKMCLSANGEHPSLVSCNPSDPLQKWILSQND

[15] = molecular target: T1, Polypeptide N-acetylgalactosaminyltransferase 2; test: Non-competitive inhibition of human recombinant FLAG-tagged ppGalNAcT2 expressed in HEK293 cells using UDP-GalNAc as substrate by HPLC-based enzyme assay
HT-29 [16] = test: Effect on ppGalNAcT4 expression level in human HT-29 cells at 40 uM incubated for 48 hrs by Q-PCR analysis; assay type: ADME, cell-based; settings: ht-29, 48 h
RKO [17] = test: Antimigratory activity in human RKO cells at 40 uM incubated for 48 hrs by crystal violet staining based method; assay type: functional, cell-based
HT-29 [18] = test: Effect on ppGalNAcT14 expression level in human HT-29 cells at 40 uM incubated for 48 hrs by Q-PCR analysis; assay type: ADME, cell-based; settings: ht-29, 48 h
HT-29 [19] = test: Effect on ppGalNAcT4 expression level in human HT-29 cells at 40 uM incubated for 48 hrs by Western blot analysis; assay type: ADME, cell-based; settings: ht-29, 48 h
Cricetulus griseus = species: Cricetulus griseus; test: Inhibition of ppGalNAcT2 in Chinese hamster ldlD cell lysates assessed as reduction in O-GalNAc glycosylation by measuring glycans VVA lectin expression at 0.5 to 4 uM incubated for 30 mins by Western blot analysis; assay type: subcellular; settings: Lysate

`O=c1oc2c(O)c(O)ccc2c2cc(O)c(O)cc12` was tested, and the Activity (HT-29 [1]) was “Non-Toxic”, the Activity (HT-29 [2]) was “Active” and the IC50 [3] was 1140 nM. The IC50 [4] was 760 nM, the inhibition [5] was “Active” and the Activity (HT-29 [6]) was “Non-Toxic”. The Activity (HT-29 [7]) was “Non-Toxic”, the Activity (HT-29 [8]) was “Non-Toxic” and the Ki [9] was 1070 nM. The IC50 [10] was 330 nM, the Ratio IC50 (Homo sapiens) was 4 and the Activity (RKO [11]) was “Non-Toxic”. The inhibition [12] was “Active”, the Activity (HT-29 [13]) was “Non-Toxic” and the IC50 [14] was 1610 nM. For the same molecule, the Ki [15] was 6150 nM, the Activity (HT-29 [16]) was “Non-Toxic” and the Activity (RKO [17]) was “Active”. For the same molecule, the Activity (HT-29 [18]) was “Non-Toxic”, the Activity (HT-29 [19]) was “Non-Toxic” and the inhibition (Cricetulus griseus) was “Dose-dependent effect”.
